Laboratory results reported in patent US20240308992A1 (Biopolar Youtang(Guangdong) Pharmaceutical Co., Ltd., priority 2021, published 2024).

biological target: T1, Drak2 (Homo sapiens, UniProt O94768); experiment: Drak2 activity test, ADP-Glo kinase assay (Promega); type: biochemical; details: inhibition of Drak2 kinase activity, 2 h room temperature, activity range classes, read-out: IC50_Drak2
T1 sequence (O94768 1-372): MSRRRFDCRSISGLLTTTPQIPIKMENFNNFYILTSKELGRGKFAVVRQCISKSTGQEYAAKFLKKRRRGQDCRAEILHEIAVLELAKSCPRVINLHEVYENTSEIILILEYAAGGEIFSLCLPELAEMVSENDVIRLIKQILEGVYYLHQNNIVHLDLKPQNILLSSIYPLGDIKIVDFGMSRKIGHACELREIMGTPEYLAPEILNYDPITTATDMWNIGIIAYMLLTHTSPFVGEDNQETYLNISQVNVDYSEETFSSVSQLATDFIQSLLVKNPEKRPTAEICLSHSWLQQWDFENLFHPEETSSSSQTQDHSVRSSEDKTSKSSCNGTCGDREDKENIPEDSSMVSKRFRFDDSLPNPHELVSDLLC

Row | SMILES | IC50
1 | CCCCC(=O)Nc1csc(-c2cncc(-c3ccc(C(=O)N4CCC(OC)CC4)c(OC)c3)n2)c1 [Example B53, N-(5-(6-(3-methoxy-4-(4-methoxypiperidine-1-carbonyl)phenyl)pyrazin-2-yl)thiophen-3-yl)pentanamide] | 0.011 to 0.1 µM
2 | COc1cc(-c2cncc(-c3cc(NC(=O)CC4CC4)cs3)n2)ccc1C(=O)Nc1cn(C)nc1OC [Example B42, 4-(6-(4-(2-cyclopropylacetamido)thiophen-2-yl)pyrazin-2-yl)-2-methoxy-N-(3-methoxy-1-methyl-1H-pyrazol-4-yl)benzamide] | 0.101 to 1 µM
3 | COc1cc(-c2cncc(-c3cc(NC(=O)C4CCC4)cs3)n2)ccc1Cl [Example A15, N-(5-(6-(4-chloro-3-methoxyphenyl)pyrazin-2-yl)thiophen-3-yl)cyclobutanecarboxamide] | 0.101 to 1 µM
4 | CCCCC(=O)Nc1csc(-c2cncc(-c3ccc(F)c(O)c3)n2)c1 [Example A41, N-(5-(6-(4-fluoro-3-hydroxyphenyl)pyrazin-2-yl)thiophen-3-yl)pentanamide] | 0.101 to 1 µM
5 | COc1cc(-c2cncc(-c3cc(NC(=O)CC4CCC4)cs3)n2)ccc1C(=O)N(C)C1CC2(C1)CN(C1CC1)C2 [Example B97, 4-(6-(4-(2-cyclobutylacetamido)thiophen-2-yl)pyrazin-2-yl)-N-(2-cyclopropyl-2-azaspiro[3.3]heptan-6-yl)-2-methoxy-N-methylbenzamide] | 0.011 to 0.1 µM
6 | CCCCC(=O)Nc1csc(-c2cncc(-c3cccs3)n2)c1 [Example 219, N-{5-[6-(thiophen-2-yl)pyrazin-2-yl]thiophen-3-yl}pentanamide] | 0.011 to 0.1 µM
7 | CCCCC(=O)Nc1csc(-c2cncc(-c3ccc(F)c(F)c3)n2)c1 [Example A27, N-(5-(6-(3,4-difluorophenyl)pyrazin-2-yl)thiophen-3-yl)pentanamide] | 1 to 10 µM
8 | COc1cc(-c2cncc(-c3cc(NC(=O)CC4CCCC4)cs3)n2)ccc1C(=O)Nc1nnnn1C [Example B27, 2-methoxy-4-(6-(4-(2-cyclopentylacetamido)thiophen-2-yl)pyrazin-2-yl)-N-(1-methyl-1H-tetrazol-5-yl)benzamide] | 0.011 to 0.1 µM
9 | CCCCC(=O)Nc1csc(-c2cncc(-c3ccc4c(c3)OCCN4C(=O)C3CCN(C)CC3)n2)c1 [Example 214, N-[5-(6-{4-[(1-methylhexahydropyridin-4-yl)carbonyl]-3,4-dihydro-2H-benzo [2,1-b] [1,4]oxazinan-7-yl}pyrazine-2-y)thiophene-3-yl] pentanamide] | 0.011 to 0.1 µM
10 | COc1cc(-c2cncc(-c3cc(NC(=O)CC4CC4)cs3)n2)ccc1S(=O)(=O)N(C)CCN(C)C [Example B102, 2-cyclopropyl-N-(5-(6-(4-(N-(2-(dimethylamino)ethyl)-N-methylsulfamoyl)-3-methoxyphenyl)pyrazin-2-yl)thiophen-3-yl)acetamide] | 0.011 to 0.1 µM
11 | CCCCC(=O)Nc1csc(-c2cncc(-c3cccc(OC)c3)n2)c1 [Example 195, N-{5-[6-(3-methoxyphenyl)pyrazin-2-yl]thiophen-3-yl} pentanamide] | 0.011 to 0.1 µM
12 | CCCCC(=O)Nc1csc(-c2cncc(-c3ccc(C(N)=O)c(OC)c3)n2)c1 [Example B3, 2-methoxy-4-(6-(4-pentanamidothiophen-2-yl)pyrazin-2-yl)benzamide] | 0.101 to 1 µM
13 | COc1ccc(-c2cncc(-c3cc(NC(=O)C4CCC4)cs3)n2)cc1Cl [Example A17, N-(5-(6-(3-chloro-4-methoxyphenyl)pyrazin-2-yl)thiophen-3-yl)cyclobutanecarboxamide] | 0.101 to 1 µM
14 | CCCCC(=O)Nc1csc(-c2cncc(-c3ccc(OC)c(OC)c3)c2C(N)=O)c1 [Example C3, 3-(3,4-dimethoxyphenyl)-5-(4-pentanamidothiophen-2-yl)isonicotinamide] | 1 to 10 µM
15 | COc1cc(-c2cncc(-c3cc(NC(=O)CC4CCCC4)cs3)n2)ccc1C(=O)N(C)C1CCN(C)CC1 [Example B61, 4-(6-(4-(2-cyclopentylacetamido)thiophen-2-yl)pyrazin-2-yl)-2-methoxy-N-methyl-N-(1-methylpiperidin-4-yl)benzamide] | 0.011 to 0.1 µM
16 | COc1cc(-c2cncc(-c3cc(NC(=O)CC4(c5ccc(C(F)(F)F)cc5)CCC4)cs3)n2)ccc1C(=O)N(C)C1CCN(C)CC1 [Example B85, 2-methoxy-N-methyl-N-(1-methylpiperidin-4-yl)-4-(6-(4-(2-(1-(4-(trifluoromethyl)phenyl)cyclobutyl)acetamido)thiophen-2-yl)pyrazin-2-yl)benzamide] | 0.101 to 1 µM
17 | COc1cc(-c2cncc(-c3cc(NC(=O)CC4CC(C(C)(F)F)C4)cs3)n2)ccc1C(=O)N(C)C1CCN(C)CC1 (centres unmarked) [Example B92, 4-(6-(4-(2-(3-(1,1-difluoroethyl)cyclobutyl)acetamido)thiophen-2-yl)pyrazin-2-yl)-2-methoxy-N-methyl-N-(1-methylpiperidin-4-yl)benzamide] | 0.011 to 0.1 µM
18 | COc1cc(-c2cncc(-c3cc(NC(=O)CC4CCC4)cs3)n2)ccc1C(=O)NO [Example B98, 4-(6-(4-(2-cyclobutylacetamido)thiophen-2-yl)pyrazin-2-yl)-N-hydroxy-2-methoxybenzamide] | < 0.01 µM
19 | Cn1ccc2c(-c3cncc(-c4cc(NC(=O)CC5CCC5)cs4)n3)ccnc21 [Example 224] | 0.101 to 1 µM
20 | CCCC(=O)Nc1csc(-c2cncc(-c3ccc(C(=O)Nc4nnn[nH]4)c(OC)c3)n2)c1 [Example B9, 2-methoxy-4-(6-(4-butyramidothiophen-2-yl)pyrazin-2-yl)-N-(1H-tetrazol-5-yl)benzamide] | 0.101 to 1 µM
21 | COc1cc(-c2cncc(-c3cc(NC(=O)CC4CC4)cs3)n2)ccc1C(=O)N1CCOCC1 [Example B31, 2-cyclopropyl-N-(5-(6-(3-methoxy-4-(morpholine-4-carbonyl)phenyl)pyrazin-2-yl)thiophen-3-yl)acetamide] | 0.011 to 0.1 µM
22 | CCCCC(=O)Nc1csc(-c2cncc(-c3cc(F)c(C(=O)N(C)C4CCN(C)CC4)c(F)c3)n2)c1 [Example B74, 2,6-difluoro-N-methyl-N-(1-methylpiperidin-4-yl)-4-(6-(4-pentanamidothiophen-2-yl)pyrazin-2-yl)benzamide] | 0.101 to 1 µM
23 | COc1cc(-c2cncc(-c3cc(NC(=O)CC4CCC4)cs3)n2)ccc1C(=O)Nc1cnn(C)c1OC [Example B43, 4-(6-(4-(2-cyclobutylacetamido)thiophen-2-yl)pyrazin-2-yl)-2-methoxy-N-(5-methoxy-1-methyl-1H-pyrazol-4-yl)benzamide] | 0.101 to 1 µM
24 | CCCCC(=O)Nc1csc(-c2cncc(-c3ccc(C(=O)Nc4nnn[nH]4)c(OC)c3)n2)c1 [Example B4, 2-methoxy-4-(6-(4-pentanamidothiophen-2-yl)pyrazin-2-yl)-N-(1H-tetrazol-5-yl)benzamide] | 0.011 to 0.1 µM
25 | CCCCC(=O)Nc1csc(-c2cncc(-c3ccc(Cl)c(OC)c3)n2)c1 [Example A16, N-(5-(6-(4-chloro-3-methoxyphenyl)pyrazin-2-yl)thiophen-3-yl)pentanamide] | 1 to 10 µM
26 | CCCCC(=O)Nc1csc(-c2cncc(-c3ccc(OCCN4CCS(=O)(=O)CC4)c(OC)c3)n2)c1 [Example 180, N-{5-[6-(4-{[2-(1,1-dioxo-1 λ^6-1,4-thiomorpholin-4-yl)ethyl]oxy}-3-methoxyphenyl)pyrazin-2-yl]thiophen-3-yl} pentanamide] | 0.011 to 0.1 µM
